One experiment deals with CK1ε (Homo sapiens (Human), UniProt P49674). In words: CK1ε kinase assay (Caliper LABCHIP electrophoretic separation of fluoresceinated peptide substrate and product). In kind it is biochemical. To be noted: 200 pM enzyme, 50 μM ATP, 22 hours at room temperature. An outline of the steps: (§1)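 Reactions ran 22 hours at room temperature and were stopped with EDTA. Phosphorylated product and unphosphorylated substrate were then separated electrophoretically. Compounds were tested at eleven concentrations, and IC50 values came from non-linear regression.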

The target in the next experiment is CK1δ (Homo sapiens (Human), UniProt P48730). The experiment can be described thus: CK1δ kinase assay (Caliper LABCHIP electrophoretic separation of fluoresceinated peptide substrate and product). The class given is biochemical. To be noted: 200 pM enzyme, 50 μM ATP, 22 hours at room temperature. In outline: as §1
A further experiment relates to pancreatic tumor cell. To be noted: in vitro and in vivo; Brockschmidt et al., Gut 2008; cited from earlier work.

pIC50: −log10 of the molar value.

Chain of CK1δ (P48730 whole entry): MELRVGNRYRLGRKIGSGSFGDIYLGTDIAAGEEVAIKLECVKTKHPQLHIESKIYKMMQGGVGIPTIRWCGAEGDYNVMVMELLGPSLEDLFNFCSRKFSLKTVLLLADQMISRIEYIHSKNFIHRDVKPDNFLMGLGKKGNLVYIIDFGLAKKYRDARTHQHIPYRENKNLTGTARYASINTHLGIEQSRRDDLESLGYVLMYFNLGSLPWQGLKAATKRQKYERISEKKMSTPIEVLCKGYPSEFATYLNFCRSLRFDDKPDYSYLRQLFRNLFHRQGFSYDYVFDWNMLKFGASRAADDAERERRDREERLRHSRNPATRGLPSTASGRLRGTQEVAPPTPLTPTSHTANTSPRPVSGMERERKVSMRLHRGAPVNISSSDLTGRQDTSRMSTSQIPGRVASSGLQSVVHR
Chain of CK1ε (P49674 whole entry): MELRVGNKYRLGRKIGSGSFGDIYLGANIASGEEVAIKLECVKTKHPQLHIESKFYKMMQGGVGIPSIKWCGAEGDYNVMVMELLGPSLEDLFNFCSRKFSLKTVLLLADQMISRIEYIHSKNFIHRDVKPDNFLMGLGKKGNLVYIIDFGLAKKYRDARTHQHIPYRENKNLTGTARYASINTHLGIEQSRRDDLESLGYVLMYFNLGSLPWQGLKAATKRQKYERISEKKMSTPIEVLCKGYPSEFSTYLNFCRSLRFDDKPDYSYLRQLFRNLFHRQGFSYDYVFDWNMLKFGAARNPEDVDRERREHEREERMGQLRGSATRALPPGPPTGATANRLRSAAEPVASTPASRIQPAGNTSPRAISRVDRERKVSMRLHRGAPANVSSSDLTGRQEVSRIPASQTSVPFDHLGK

As usually defined, the pIC50 is −log10 of the IC50, conventionally taken in molar units. A higher pIC50 goes with a small IC50. On to `CC(C)(C(=O)N1CCn2c(nc(-c3ccc(F)cc3)c2-c2ccc3nc(NC(=O)c4ccnc(F)c4)cn3n2)C1)C(F)(F)F` [Compound 465, 2-Fluoro-N-(6-(2-(4-fluorophenyl)-7-(3,3,3-trifluoro-2,2-dimethylpropanoyl)-5,6,7,8-tetrahydroimidazo[1,2-a]pyrazin-3-yl)imidazo[1,2-b]pyridazin-2-yl)isonicotinamide], for which the pIC50 was 8.30 against CK1ε and 9.22 on CK1δ. For `O=C(Nc1cn2nc(-c3c(-c4ccc(F)cc4)nc4n3CCN(C(=O)C3CC3(F)F)C4)ccc2n1)c1ccnc(F)c1` (stereo not drawn) [Compound 466, N-(6-(7-(2,2-Difluorocyclopropanecarbonyl)-2-(4-fluorophenyl)-5,6,7,8-tetrahydroimidazo[1,2-a]pyrazin-3-yl)imidazo[1,2-b]pyridazin-2-yl)-2-fluoroisonicotinamide] the same measures were 8.82 and 9.70. The like results for `O=C(Nc1cn2nc(-c3c(-c4ccc(F)cc4)nc4n3CCN(C(=O)C3(C(F)(F)F)CCC3)C4)ccc2n1)c1ccnc(F)c1` [Compound 467, 2-Fluoro-N-(6-(2-(4-fluorophenyl)-7-(1-(trifluoromethyl)cyclobutanecarbonyl)-5,6,7,8-tetrahydroimidazo[1,2-a]pyrazin-3-yl)imidazo[1,2-b]pyridazin-2-yl)isonicotinamide] were, in that order, 8.21 and 9.10.

Turning to `CC1(C(=O)N2CCn3c(nc(-c4ccc(F)cc4)c3-c3ccc4nc(NC(=O)c5ccnc(F)c5)cn4n3)C2)COC1` [Compound 468, 2-Fluoro-N-(6-(2-(4-fluorophenyl)-7-(3-methyloxetane-3-carbonyl)-5,6,7,8-tetrahydroimidazo[1,2-a]pyrazin-3-yl)imidazo[1,2-b]pyridazin-2-yl)isonicotinamide], the pIC50 at CK1ε was 8.41; against CK1δ it was 9.30.

Regarding `O=C(Nc1cn2nc(-c3c(-c4ccc(F)cc4)nc4n3CCN(C(=O)C3CC3)C4)ccc2n1)c1ccnc(F)c1` [Compound 469, N-(6-(7-(Cyclopropanecarbonyl)-2-(4-fluorophenyl)-5,6,7,8-tetrahydroimidazo[1,2-a]pyrazin-3-yl)imidazo[1,2-b]pyridazin-2-yl)-2-fluoroisonicotinamide], the values for the pIC50 against CK1ε and on CK1δ were 7.89 and 8.64, respectively. As for `CC(C)(O)C(=O)N1CCn2c(nc(-c3ccc(F)cc3)c2-c2ccc3nc(NC(=O)c4ccnc(F)c4)cn3n2)C1` [Compound 470, 2-Fluoro-N-(6-(2-(4-fluorophenyl)-7-(2-hydroxy-2-methylpropanoyl)-5,6,7,8-tetrahydroimidazo[1,2-a]pyrazin-3-yl)imidazo[1,2-b]pyridazin-2-yl)isonicotinamide], the pIC50 is 8.09 against CK1ε and 8.96 at CK1δ. On to `N#CC1(C(=O)N2CCn3c(nc(-c4ccc(F)cc4)c3-c3ccc4nc(NC(=O)c5ccnc(F)c5)cn4n3)C2)CC1` [Compound 471, N-(6-(7-(1-Cyanocyclopropanecarbonyl)-2-(4-fluorophenyl)-5,6,7,8-tetrahydroimidazo[1,2-a]pyrazin-3-yl)imidazo[1,2-b]pyridazin-2-yl)-2-fluoroisonicotinamide], for which the figures for the pIC50 at CK1ε and at CK1δ were 8.46 and 9.30, respectively. The like results for `O=C(Nc1cn2nc(-c3c(-c4ccc(F)cc4)nc4n3CCN(C(=O)C3(C(F)(F)F)CC3)C4)ccc2n1)c1ccnc(F)c1` [Compound 472, 2-Fluoro-N-(6-(2-(4-fluorophenyl)-7-(1-(trifluoromethyl)cyclopropanecarbonyl)-5,6,7,8-tetrahydroimidazo[1,2-a]pyrazin-3-yl)imidazo[1,2-b]pyridazin-2-yl)isonicotinamide] were, in that order, 8.35 and 9.22. Regarding `CC1(C)CC1C(=O)N1CCn2c(nc(-c3ccc(F)cc3)c2-c2ccc3nc(NC(=O)c4ccnc(F)c4)cn3n2)C1` (stereo not drawn) [Compound 473, N-(6-(7-(2,2-Dimethylcyclopropanecarbonyl)-2-(4-fluorophenyl)-5,6,7,8-tetrahydroimidazo[1,2-a]pyrazin-3-yl)imidazo[1,2-b]pyridazin-2-yl)-2-fluoroisonicotinamide], the values for the pIC50 against CK1ε and on CK1δ were 8.54 and 9.30, respectively.

As to `COC(=O)N1CCn2c(nc(-c3ccc(F)cc3)c2-c2ccc3nc(NC(=O)c4ccnc(F)c4)cn3n2)C1` [Compound 474, Methyl 3-(2-(2-fluoroisonicotinamido)imidazo[1,2-b]pyridazin-6-yl)-2-(4-fluorophenyl)-5,6-dihydroimidazo[1,2-a]pyrazine-7(8H)-carboxylate], the pIC50 against CK1ε was 8.03; on CK1δ, 9.00. For `CS(=O)(=O)N1CCn2c(nc(-c3ccc(F)cc3)c2-c2ccc3nc(NC(=O)c4ccnc(F)c4)cn3n2)C1` [Compound 476, 2-Fluoro-N-(6-(2-(4-fluorophenyl)-7-(methylsulfonyl)-5,6,7,8-tetrahydroimidazo[1,2-a]pyrazin-3-yl)imidazo[1,2-b]pyridazin-2-yl)isonicotinamide] the same measures were 8.60 and 9.52. For `O=C(Nc1cn2nc(-c3c(-c4ccc(F)cc4)nc4n3CCN(CCC(F)(F)F)C4)ccc2n1)c1ccnc(F)c1` [Compound 478, 2-Fluoro-N-(6-(2-(4-fluorophenyl)-7-(3,3,3-trifluoropropyl)-5,6,7,8-tetrahydroimidazo[1,2-a]pyrazin-3-yl)imidazo[1,2-b]pyridazin-2-yl)isonicotinamide] the same measures were 8.64 and 9.40.

For `CC(C)(C)NC(=O)N1CCn2c(nc(-c3ccc(F)cc3)c2-c2ccc3nc(NC(=O)c4ccnc(F)c4)cn3n2)C1` [Compound 481, N-(tert-Butyl)-3-(2-(2-fluoroisonicotinamido)imidazo[1,2-b]pyridazin-6-yl)-2-(4-fluorophenyl)-5,6-dihydroimidazo[1,2-a]pyrazine-7(8H)-carboxamide], the pIC50 against CK1ε was 8.27; against CK1δ, 9.22. `CC(C)NC(=O)N1CCn2c(nc(-c3ccc(F)cc3)c2-c2ccc3nc(NC(=O)c4ccnc(F)c4)cn3n2)C1` [Compound 482, 3-(2-(2-Fluoroisonicotinamido)imidazo[1,2-b]pyridazin-6-yl)-2-(4-fluorophenyl)-N-isopropyl-5,6-dihydroimidazo[1,2-a]pyrazine-7(8H)-carboxamide]: the pIC50 on CK1ε is 7.92; against CK1δ it was 8.96. Turning to `O=C(Nc1cn2nc(-c3c(-c4ccc(F)cc4)nc4n3CCN(C(=O)NC3CC3)C4)ccc2n1)c1ccnc(F)c1` [Compound 483, N-Cyclopropyl-3-(2-(2-fluoroisonicotinamido)imidazo[1,2-b]pyridazin-6-yl)-2-(4-fluorophenyl)-5,6-dihydroimidazo[1,2-a]pyrazine-7(8H)-carboxamide], the values for the pIC50 against CK1ε and against CK1δ were 8.41 and 9.40, respectively.

Take `CC(C)(NC(=O)N1CCn2c(nc(-c3ccc(F)cc3)c2-c2ccc3nc(NC(=O)c4ccnc(F)c4)cn3n2)C1)C(F)(F)F` [Compound 484, 3-(2-(2-Fluoroisonicotinamido)imidazo[1,2-b]pyridazin-6-yl)-2-(4-fluorophenyl)-N-(1,1,1-trifluoro-2-methylpropan-2-yl)-5,6-dihydroimidazo[1,2-a]pyrazine-7(8H)-carboxamide]: the pIC50 is 8.17 against CK1ε and 9.22 on CK1δ.

For `CC1(NC(=O)N2CCn3c(nc(-c4ccc(F)cc4)c3-c3ccc4nc(NC(=O)c5ccnc(F)c5)cn4n3)C2)CC1` [Compound 485, 3-(2-(2-Fluoroisonicotinamido)imidazo[1,2-b]pyridazin-6-yl)-2-(4-fluorophenyl)-N-(1-methylcyclopropyl)-5,6-dihydroimidazo[1,2-a]pyrazine-7(8H)-carboxamide], the pIC50 on CK1ε is 8.35; against CK1δ it was 9.30. For `O=C(Nc1cn2nc(-c3c(-c4ccc(F)cc4)nc4n3CCN(C(=O)NCCC(F)(F)F)C4)ccc2n1)c1ccnc(F)c1` [Compound 486, 3-(2-(2-Fluoroisonicotinamido)imidazo[1,2-b]pyridazin-6-yl)-2-(4-fluorophenyl)-N-(3,3,3-trifluoropropyl)-5,6-dihydroimidazo[1,2-a]pyrazine-7(8H)-carboxamide] the same measures were 8.19 and 9.15. Consider `CC(C)OC(=O)N1CCn2c(nc(-c3ccc(F)cc3)c2-c2ccc3nc(NC(=O)c4ccnc(F)c4)cn3n2)C1` [Example 475], for which the pIC50 was 8.09 at CK1ε and 9.15 at CK1δ. With `COc1cc(OC)c(C=C2C(O)=Nc3ccccc32)c(OC)c1` [IC261], the “pancreatic tumor cell growth” value in the experiment with pancreatic tumor cell was “reduces pancreatic tumor cell growth in vitro and in vivo”.

(Values after patent US9556179B2 (BRISTOL-MYERS SQUIBB COMPANY, priority 2012, dated 2017).)
